Measurements: patent US8637561B2, “Linked diimidazole derivatives” (Enanta Pharmaceuticals, Inc., priority 2009, dated 2014)

system: HCV 1b genotype replicon; assay: HCV replicon assay (qRT-PCR or luciferase), genotype 1b; assay type: cell-based; conditions: Hepatitis C virus, read-out: Genotype-1b replicon EC50 Range
Source text: HCV replicon cell lines (kindly provided by R. Bartenschlager) isolated from colonies as described by Lohman et al. (Lohman et al. (1999) Science 285: 110-113, expressly incorporated by reference in its entirety) and used for all experiments. The HCV replicon has the nucleic acid sequence set forth in EMBL Accession No.: AJ242651, the coding sequence of which is from nucleotides 1801 to 8406.
The coding sequence of the published HCV replicon was synthesized and subsequently assembled in a modified plasmid pBR322 (Promega, Madison, Wis.) using standard molecular biology techniques. One replicon cell line (“SGR 11-7”) stably expresses HCV replicon RNA which consists of (i) the HCV 5′UTR fused to the first 12 amino acids of the capsid protein, (ii) the neomycin phosphotransferase gene (neo), (iii) the IRES from encephalomyocarditis virus (EMCV), and (iv) HCV NS2 to NS5B genes and the HCV 3′UTR. […]
EC50 values of single agent compounds and combinations were determined by HCV RNA detection using quantitative RT-PCR, according to the manufacturer's instructions, with a TaqMan® One-Step RT-PCR Master Mix Reagents Kit (Cat# AB 4309169, Applied Biosystems) on an ABI Model 7500 thermocycler. The TaqMan primers used for detecting and quantifying HCV RNA were obtained from Integrated DNA Technologies. HCV RNA was normalized to GAPDH RNA levels in drug-treated cells, which is detected and quantified using the Human GAPDH Endogenous Control Mix (Applied Biosystems, AB 4310884E). […] Chemical agent cytotoxicity is evaluated using an MTS assay according to the manufacturer's directions (Promega). […]

Structure (SMILES) | EC50
COC(=O)N[C@@H](C(=O)N1CCC[C@H]1c1ncc(CCc2ccc(-c3cnc([C@@H]4CCCN4C(=O)[C@H](NC(=O)OC)c4ccccc4)[nH]3)cc2)[nH]1)c1ccccc1 [Example 361] | < 1 nM
COC(=O)N[C@@H](C(=O)N1CCC[C@H]1c1ncc(C#Cc2ccc(-c3cnc([C@@H]4CCCN4C(=O)[C@H](NC(=O)OC)c4ccccc4)[nH]3)cc2)[nH]1)c1ccccc1 [Example 299] | < 1 nM
COC(=O)N[C@@H](C(=O)N1CCC[C@H]1c1nc(C2=CCC(c3ccc(-c4cnc([C@@H]5CCCN5C(=O)[C@H](NC(=O)OC)c5ccccc5)[nH]4)cc3)CC2)c[nH]1)c1ccccc1 (stereo partly drawn) [Example 1-b] | < 1 nM
